One series has as its target T1, human EAAT1 (Homo sapiens, UniProt P43003).
T1 construct: expressed in transfected cells
Nature of the series: [3H]-D-Aspartic acid uptake assay, HEK293 cells stably expressing EAAT1. The series is classed as cell-based. On the procedure:
(§1) Table 1: Inhibition of [^3H]-D-Asp uptake in HEK293 cells stably expressing human EAAT1, EAAT2 and EAAT3. The IC50 values are given in μM with pIC50±S.E.M. values in brackets (n=3-7).
(§2) The functional properties of the novel compounds of the invention were assessed in a [^3H]-D-Aspartic acid uptake assay using HEK293 cell lines stably expressing the human EAAT subtypes EAAT1, EAAT2 and EAAT3. Furthermore, some of the compounds were assayed at human EAAT1, EAAT2 and EAAT3 and the rat orthologs GLAST, GLT-1 and EAAC-1 in the FLIPR® Membrane Potential (FMP) Blue assay (Molecular Devices, Crawley, UK).
(§3) FIG. I depicts a graph showing the concentration-inhibition curves for 1o at the human EAAT subtype EAAT1 stably expressed in HEK293 cell lines in a [^3H]-D-aspartic acid uptake assay. The cells (grown in wells of 96-well plates) were washed twice with assay buffer, and incubated with buffer supplemented with 30 nM [^3H]-D-aspartic acid in the absence (control) or presence of increasing concentrations of 1o at […] for 7 min. The assay mixtures were then quickly removed from the wells, and the cells were washed with 3 times with ice-cold buffer, scintillation fluid was added to each well, and the plate was counted in a TopCounter.

The target in another series is T2, human EAAT3 (Homo sapiens, UniProt P43005).
T2 construct: expressed in transfected cells
T2 sequence (P43005 1-524): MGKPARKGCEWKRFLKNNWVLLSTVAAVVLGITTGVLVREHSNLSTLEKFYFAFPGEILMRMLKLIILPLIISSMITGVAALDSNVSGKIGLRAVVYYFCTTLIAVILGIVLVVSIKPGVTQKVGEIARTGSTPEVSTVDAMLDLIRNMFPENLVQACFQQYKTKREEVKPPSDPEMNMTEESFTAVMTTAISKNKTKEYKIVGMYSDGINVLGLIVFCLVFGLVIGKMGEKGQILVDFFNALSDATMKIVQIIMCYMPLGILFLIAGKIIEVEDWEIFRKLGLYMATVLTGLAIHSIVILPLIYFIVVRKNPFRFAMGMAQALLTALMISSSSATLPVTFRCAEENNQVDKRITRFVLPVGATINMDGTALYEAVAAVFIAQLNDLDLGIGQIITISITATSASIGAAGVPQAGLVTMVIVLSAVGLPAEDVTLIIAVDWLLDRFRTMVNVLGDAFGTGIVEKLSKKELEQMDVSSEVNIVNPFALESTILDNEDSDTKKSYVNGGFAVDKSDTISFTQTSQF
Nature of the series: [3H]-D-Aspartic acid uptake assay, HEK293 cells stably expressing EAAT3. The series is classed as cell-based. The conditions noted are these: n=3-7, read-out: Inhibition of [3H]-D-Asp uptake, EAAT3, IC50. The procedure:
as §1, §2, §3

In a further series the target is T3, human EAAT2 (Homo sapiens, UniProt P43004).
T3 construct: expressed in transfected cells
T3 sequence (P43004 whole entry): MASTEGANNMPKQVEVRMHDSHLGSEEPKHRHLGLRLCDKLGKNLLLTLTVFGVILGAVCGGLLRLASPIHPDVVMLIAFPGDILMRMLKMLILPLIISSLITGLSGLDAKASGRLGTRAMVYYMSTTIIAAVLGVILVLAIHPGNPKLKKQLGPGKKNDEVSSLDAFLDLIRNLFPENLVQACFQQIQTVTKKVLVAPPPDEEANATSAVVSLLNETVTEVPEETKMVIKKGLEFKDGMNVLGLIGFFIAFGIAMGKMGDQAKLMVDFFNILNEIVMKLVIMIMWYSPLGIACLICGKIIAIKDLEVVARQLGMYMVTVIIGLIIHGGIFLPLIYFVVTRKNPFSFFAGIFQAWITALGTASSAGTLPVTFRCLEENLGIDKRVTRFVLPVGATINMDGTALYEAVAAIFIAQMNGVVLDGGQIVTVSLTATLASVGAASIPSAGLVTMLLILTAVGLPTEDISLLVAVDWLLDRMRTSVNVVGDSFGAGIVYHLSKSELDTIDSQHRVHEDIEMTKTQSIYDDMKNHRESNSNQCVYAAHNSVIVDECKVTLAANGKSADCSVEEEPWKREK
Nature of the series: [3H]-D-Aspartic acid uptake assay, HEK293 cells stably expressing EAAT2. The series is classed as cell-based. The note with it: n=3-7, read-out: Inhibition of [3H]-D-Asp uptake, EAAT2, IC50. The procedure:
as §1, §2, §3

The next series in a line: Solubility in solvents. The series is classed as physicochemical. The conditions noted are these: aq buffer solutions (pH=7.4), DMSO and CDCl3.
Setting [1] is: HEK293 cells stably expressing human EAAT1, n=3-7, read-out: Inhibition of [3H]-D-Asp uptake, EAAT1, IC50.
The mark [2] stands for this setting: HEK293 cells stably expressing human EAAT1, value in brackets, n=3-7.
The mark [3] stands for this setting: HEK293 cells stably expressing human EAAT1, value in brackets, n=3-7, read-out: Inhibition of [3H]-D-Asp uptake, EAAT1, pIC50±S.E.M. (converted).

The structures appear in SMILES notation. Read-outs that look alike come from different tables or passages of the source. Where only a bound is given, the exact number is not on record here.

T1 sequence (P43003 whole entry): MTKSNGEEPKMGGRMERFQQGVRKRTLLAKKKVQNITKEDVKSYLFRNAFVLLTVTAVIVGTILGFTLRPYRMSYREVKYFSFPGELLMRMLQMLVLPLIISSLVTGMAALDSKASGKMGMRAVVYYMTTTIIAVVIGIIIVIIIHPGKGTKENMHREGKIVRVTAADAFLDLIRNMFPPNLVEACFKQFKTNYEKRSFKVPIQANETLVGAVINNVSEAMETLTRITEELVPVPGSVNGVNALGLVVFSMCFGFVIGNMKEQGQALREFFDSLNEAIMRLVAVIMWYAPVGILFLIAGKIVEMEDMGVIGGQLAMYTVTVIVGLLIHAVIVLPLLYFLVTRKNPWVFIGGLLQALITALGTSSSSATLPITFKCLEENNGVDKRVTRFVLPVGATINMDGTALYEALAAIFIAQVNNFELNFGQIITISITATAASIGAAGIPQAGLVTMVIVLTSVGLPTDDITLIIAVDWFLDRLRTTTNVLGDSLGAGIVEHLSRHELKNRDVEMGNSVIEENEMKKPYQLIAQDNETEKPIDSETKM

As for `COc1ccc(C2C(C#N)=C(N)OC3=C2C(=O)CC(c2ccccc2)C3)cc1` (stereo not shown) [1c, 2-Amino-4-(4-methoxyphenyl)-7-(phenyl)-5-oxo-5,6,7,8-tetrahydro-4H-chromene-3-carbonitrile], the IC50 at human EAAT1 (setting [1]) was 2.3 µM. The “Inhibition of [3H]-D-Asp uptake, EAAT1, pIC50±S.E.M.” value at human EAAT1 (setting [2]) came to 5.64 ± 0.05.
Consider `COc1cccc(C2C(C#N)=C(N)OC3=C2C(=O)CC(c2ccccc2)C3)c1OC` (stereo not shown) [1f], for which, on human EAAT1 (setting [3]), the IC50 is approximately 50.1 µM.
What is called melting point is the temperature, or range, at which the solid turns liquid. Take `COc1ccc(C2C(C#N)=C(N)OC3=C2C(=O)CC(c2ccc(OC)c(OC)c2)C3)cc1` (stereo not shown) [1n, 2-Amino-4-(4-methoxyphenyl)-7-(3,4-dimethoxyphenyl)-5-oxo-5,6,7,8-tetrahydro-4H-chromene-3-carbonitrile]: the melting point lay within 159.9 to 161.4 °C. In addition, the IC50 at human EAAT3 was more than 300 µM. Also, the IC50 on human EAAT2 is more than 300 µM. At human EAAT1 (setting [1]), the IC50 is 11 µM. For the same compound, the “Inhibition of [3H]-D-Asp uptake, EAAT1, pIC50±S.E.M.” value at human EAAT1 (setting [2]) worked out at 4.97 ± 0.05.
`COc1ccc(C2C(C#N)=C(N)OC3=C2C(=O)CC(c2ccco2)C3)cc1OC(=O)N1CCOCC1` (stereo not shown) [1q] yielded an IC50 against human EAAT1 of approximately 100 µM.
As to `N#CC1=C(N)OC2=C(C(=O)CC(c3ccccc3)C2)C1c1cccnc1` (stereo not shown) [1s], on human EAAT1 (setting [1]), the IC50 was approximately 30 µM.
Same read-out and setting: as for `N#CC1=C(N)OC2=C(C(=O)CC(c3ccccc3)C2)C1Cc1ccccc1` (stereo not shown) [1u], the figure is approximately 30 µM.
For the compound `CC1C(C#N)=C(N)OC2=C1C(=O)CC(c1cccc3ccccc13)C2` (stereo not shown) [1w, 2-Amino-4-methyl-7-(naphthalene-1-yl)-5-oxo-5,6,7,8-tetrahydro-4H-chromene-3-carbo-nitrile], the IC50 was more than 300 µM on human EAAT3, more than 300 µM at human EAAT2, 0.58 µM on human EAAT1 (setting [1]) and 0.562 µM on human EAAT1 (setting [3]). Moreover, in the series “Solubility in solvents”, the “Solubility in comparison with 1o” value is “significantly more soluble”.

These data come from patent publication US20130345420A9, “SELECTIVE INHIBITORS OF EXCITATORY AMINO ACID TRANSPORTER SUBTYPE 1 (EAAT1/GLAST)” (priority 2008, published 2013).
